In patent US9383644B2, “Sulfonic acid derivative compounds as photoacid generators in resist applications” (Heraeus Precious Metals North America Daychem LLC, priority 2014, dated 2016):

How the values were obtained:
Format in all cases: physicochemical
[1] = Solubility of PAG in organic solvents (solvent added until completely dissolved); conditions: for Solubility (w/v %) Cyclohexanone / Solubility (w/v %) PGMEA / Solubility (w/v %) GBL: 20° C.; for Solubility in organic solvents (in words): PGMEA, cyclohexanone, GBL; for Solubility (w/v %) PGMEA / Solubility (w/v %) in PGMEA: Propylene glycol monomethyl ether acetate; for Solubility (w/v %) PGMEA: Table 8; for Solubility (w/v %) in PGMEA: Table 7; for Solubility (w/v %) GBL: γ-Butyrolactone
Source text: Solubility is an important factor in the evaluation of a PAG. High solubility not only makes a PAG purified readily but also enables a PAG to be used for a wide range of concentrations in photoresists and in varied solvent systems. To test the solubility of a PAG, a solvent is slowly added until the PAG is completely dissolved and no turbidity is observed in the clear solution. Table 8 lists the solubility (w/v %) of some representative N-hydroxynaphthalimide sulfonate derivatives versus NIT in various organic solvents at 20° C. […] All compounds except for S-6 and O-12 show much higher solubility than the commercial benchmark (NIT).

[2] = Photoreactivity: photolysis of PAGs in acetonitrile at 365 nm, photoreaction constant from UV-Vis absorbance; conditions: for Relative Photoreactivity (normalized photoreaction constant) at 365 nm: acetonitrile, air, room temperature, 3×10^−5 M, NIT normalized to one; for Solubility x relative Photoreactivity: product of solubility in PGMEA and relative photoreactivity at 365 nm
Source text: A photoresist composition typically comprises PAG, polymers, additives and solvents. The performance of a photoresist composition is mainly dependent on the properties of the PAG and polymer components. To formulate a high-performance photoresist composition, more photosensitive PAGs are typically selected. The photosensitivity of a PAG is typically directly related to the strength of the generated acid and the photoreactivity of the PAG. For a series of PAGs producing the same latent acid, their photosensitivity is related only to their photoreactivity. Thus evaluating the photosensitivity of a PAG can be achieved by studying its photoreactivity. The higher photoreactivity, the higher photosensitivity. The photoreactivity can be investigated by photolysis of a PAG in its dilute solution under low exposure intensity (to avoid side reactions which don't generate the desired acid). The change in the concentration of a PAG upon irradiation can be determined by measuring the absorbance of the PAG at the maximum absorption wavelength.
Photolysis of PAGs was carried out in acetonitrile in air at room temperature. The sodium salt of tetrabromophenol blue (TBPBNa), an acid indicator dye, which has a maximum absorption at 618 nm, was purchased from Aldrich (indicator grade) and used as received. Irradiation of the solution of the PAGs (3×10^−5 M) was performed using a Cole-Parmer UV 15 W bench lamp (EW-97605-50) at 365 nm. Light intensity was measured using an UV Power Puck II radiometer from EIT Inc. UV-Vis spectra were run on a Thermo Scientific Evolution 201 UV-visible spectrophotometer.
Photolysis of NIT, comparative compound A and B, S-3, and S-11 was examined in acetonitrile. The absorption band at 400 nm gradually decreases upon irradiation, indicating the progress of photoreaction with the increase of exposure dose of energy. Assuming the photoreaction is first-order, plot of natural log of changes in absorbance with exposure dose of energy gives the photoreaction constant of S-3 (i.e., the slope of the linear trendline) (FIG. 3). The photoreaction constants of other compounds were similarly determined under the same irradiation condition. Comparing the constants of A, B, S-3, and S-11 with that of NIT normalized to one gives the relative photoreactivity (Table 7). […] The formation of acid upon irradiation was confirmed by observing the spectral changes of the acid indicator, TBPBNa at 618 nm.

[3] = UV absorbance of PAG compounds (FIG. 1); conditions: for Absorbance at i-, h-, and g-lines of a mercury lamp (in words): versus NIT
Source text: FIG. 1 is a graph illustrating the UV absorbance of certain PAG compounds of the invention versus the UV absorbance of certain prior art PAG compounds;
Referring to FIG. 1, the PAG compounds of the invention have excellent solubility in organic solvents and strong absorption at i-, h-, and g-lines of a mercury lamp.

Compound | Solubility (w/v %) Cyclohexanone [1] | Solubility in organic solvents (in words) [1] | Solubility (w/v %) PGMEA [1] | Solubility (w/v %) in PGMEA [1] | Solubility (w/v %) GBL [1] | Relative Photoreactivity (normalized photoreaction constant) at 365 nm [2] | Solubility x relative Photoreactivity [2] | Strong absorption band [3] | Absorbance at i-, h-, and g-lines of a mercury lamp (in words) [3]
O=C1c2cccc3cccc(c23)C(=O)N1OS(=O)(=O)C(F)(F)F [NIT, N-Hydroxynaphthalimide triflate, reference compound] | 5.9% w/v % | – | 1.7% w/v % | 1.7% w/v % | 2.2% w/v % | 1.0 | 1.7% | – | –
O=C1c2cccc3c(Oc4ccccc4)ccc(c23)C(=O)N1OS(=O)(=O)C(F)(F)F [Compound O-12] | 9.0% w/v % | – | 2.0% w/v % | – | 1.6% w/v % | – | – | 364 nm | much larger than that of NIT
O=C1c2cccc3c(C#Cc4ccccc4)ccc(c23)C(=O)N1OS(=O)(=O)C(F)(F)F [Comparative B, reference compound] | 3.5% w/v % | much lower | 1.0% w/v % | 1.0% w/v % | 1.1% w/v % | 2.5 | 2.5% | – | –
CCCCSc1ccc2c3c(cccc13)C(=O)N(OS(=O)(=O)C(F)(F)F)C2=O [Comparative A, reference compound] | 4.1% w/v % | – | 1.1% w/v % | 1.1% w/v % | 0.9% w/v % | 13.5 | 14.9% | – | –
CC(C)Sc1ccc2c3c(cccc13)C(=O)N(OS(=O)(=O)C(F)(F)F)C2=O [Compound S-3] | 16.6% w/v % | much higher solubility than comparative compound A | 7.2% w/v % | 7.2% w/v % | 8.1% w/v % | 13.3 | 95.8% | 400 nm | much larger than that of NIT

Results, then the molecule that gave them:

Solubility (w/v %) Cyclohexanone [1] | Solubility in organic solvents (in words) [1] | Solubility (w/v %) PGMEA [1] | Solubility (w/v %) in PGMEA [1] | Solubility (w/v %) GBL [1] | Relative Photoreactivity (normalized photoreaction constant) at 365 nm [2] | Solubility x relative Photoreactivity [2] | Strong absorption band [3] | Absorbance at i-, h-, and g-lines of a mercury lamp (in words) [3] | Compound
86.4% w/v % | extremely high solubility | 53.9% w/v % | 53.9% w/v % | 105.7% w/v % | 14.2 | 765.4% | – | – | COC(C)CCOC(=O)CCSc1ccc2c3c(cccc13)C(=O)N(OS(=O)(=O)C(F)(F)F)C2=O (stereo not shown) [Compound S-11]
5.3% w/v % | – | 1.9% w/v % | – | 1.2% w/v % | – | – | 400 nm | much larger than that of NIT | CC(C)(C)c1ccc(Sc2ccc3c4c(cccc24)C(=O)N(OS(=O)(=O)C(F)(F)F)C3=O)cc1 [Compound S-6]
37.5% w/v % | extremely high solubility | 11.7% w/v % | – | 67.8% w/v % | – | – | – | – | COC(C)CCOC(=O)CCSc1ccc2c3c(cccc13)C(=O)N(OS(=O)(=O)c1ccc(C)cc1)C2=O (stereo not shown) [Compound S-43]
